Consider four compounds from patent US20150296780A1, “MOLLUSCICIDE” (Syngenta Participations AG, priority 2008, published 2015).

What all share (type): in vivo
Data set [1] relates to Deroceras reticulatum. Description: Forced ingestion trial of azoxystrobin (FS formulation) and picoxystrobin against various slug species (Example 3). On the procedure: (§1) Adult D. reticulatum were field-collected from an irrigated plot of mixed herbage and maintained in plastic boxes lined with moist, unbleached, absorbent paper and under controlled environmental conditions (12 hour photoperiod, 10° C., 90% RH). Slugs were fed ad. lib. on wheat grain and a mixture of fresh foliage for a period of up to, but not exceeding, one week prior to testing. Slugs were then starved for a period of 48 h before treatment.
Individual slugs were weighed and anaesthetized using CO2 for a period of 10-20 minutes. Test solutions were incorporated into a warm agar jelly (1.0% w/v) to reduce the risk of regurgitation. Twenty μl aliquots of warm agar mix was then injected into the buccal cavity of a single slug using a fine glass micro-syringe and gently eased into the slug crop. Individual slugs were then placed into labelled Petri dishes lined with moist, unbleached, absorbent paper. Following application of treatments, slugs were maintained under controlled environmental conditions (12 hr photoperiod, 10° C., 90% RH), and slug health recorded over the subsequent three days. Slug health was classified into one of four categories: • Healthy (showing no symptoms) • Affected (showing some symptoms of poisoning, excessive mucus production/deformity) • Moribund (severely affected/paralysed, unable to move in response to gentle prodding) • Dead […]

In data set [2] the test system is Deroceras reticulatum. Description: Forced ingestion trial of Deroceras reticulatum using various strobilurin compounds (Example 2). The following applies: for slug mortality (in words): 0.5 mg a.i./slug. On the procedure: as §1
(§2) Individual slugs were weighed and anaesthetized using CO2 for a period of 10-20 minutes. Test solutions were incorporated into a warm agar jelly (1.0% w/v) to reduce the risk of regurgitation. Twenty μl aliquots of warm agar mix was then injected into the buccal cavity of a single slug using a fine glass micro-syringe and gently eased into the slug crop. Individual slugs were then placed into labelled Petri dishes lined with moist, unbleached, absorbent paper. Following application of treatments, slugs were maintained under controlled environmental conditions (12 hr photoperiod, 10° C., 90% RH), and slug health recorded over the subsequent three days. Slug health was classified into one of four categories: • Healthy (showing no symptoms) • Affected (showing some symptoms of poisoning, excessive mucus production/deformity) • Moribund (severely affected/paralysed, unable to move in response to gentle prodding) • Dead
For each treatment, 20 slugs were injected. […] The results are shown in Table 3, presented as a percentage of the total number of slugs tested for each treatment.

Data set [3] deals with Tandonia budapestensis. Description: Forced ingestion trial of azoxystrobin (FS formulation) against various slug species (Example 3). The following applies: 100FS formulation. On the procedure: as §1, §2
(§3) The methods used in this trial were the same as those described in Example 2, except that the following slug species were collected and tested: Deroceras reticulatum, Anion distinctus, Anion fasciatus and Tandonia budapestensis
(§4) For each treatment, 20 slugs were injected. […] The results are shown in Table 5, presented as a percentage of the total number of slugs tested for each treatment.

The subject of data set [4] is Arion distinctus. Described as above. Conditions: 100FS formulation. On the procedure:
as §1, §2, §3, §4

Data set [5] deals with Arion fasciatus. The description is as above. Conditions: 100FS formulation. On the procedure:
as §1, §2, §3, §4

Data set [6] has as its system Tandonia budapestensis. Description: Forced ingestion trial of azoxystrobin (SC formulation) against various slug species (Example 4). The following applies: 250SC formulation. As to the method:
as §1, §2, §3
(§5) For each treatment, at least 20 slugs were injected. […] The results are shown in Table 7, presented as a percentage of the total number of slugs tested for each treatment.

Data set [7] concerns Arion distinctus. Described as above. The following applies: 250SC formulation. As to the method:
as §1, §2, §3, §5

In data set [8] the test system is Arion fasciatus. The description is as above. The following applies: 250SC formulation. On the procedure:
as §1, §2, §3, §5

In data set [9] the test system is Deroceras reticulatum. The description is as above. Conditions: 250SC formulation. On the procedure:
as §1, §2, §3, §5

The next data set deals with D. reticulatum. Description: Tests to establish potential effect of surfactants on molluscicidal activity, forced ingestion (Example 6). On the procedure:
as §1, §2
The methods used in this trial were the same as those described in Example 2. The treatments tested are listed in Table 10, and results are in Table 11, presented as a percentage of the total number of slugs tested for each treatment. For each treatment 20 slugs were tested. For ease of comparison, the concentrations of each treatment applied were equivalent to the amount of each component that would be applied in a treatment of Amistar® at a rate of 0.1 mg a.i./slug.

Data set [10] relates to Deroceras reticulatum. Description: Forced ingestion study on D. reticulatum (Example 1). The following applies: for Number of slugs Affected / Number of slugs Dead / Number of slugs Healthy: of 20 slugs. On the procedure: Forced ingestion studies were setup using the Field Slug, Deroceras reticulatum. A formulation containing the strobilurin azoxystrobin was injected directly into the gut of the slugs. Details of the formulation (Dynasty® 100FS) are: […]
Slugs were field-collected, and starved for 48 hours prior to forced ingestion studies. Individual slugs were weighed and anaesthetized using carbon dioxide for 10 to 20 minutes. Test solutions were incorporated into an agar jelly (1.0% w/v) to reduce the risk of regurgitation. For each slug, ten ul aliquots of warm agar mix were injected into the buccal cavity using a fine glass micro-syringe and gently eased into the slug crop. Individual slugs were then placed into labelled Petri dishes lined with moist, unbleached, absorbent paper. For each treatment, 20 slugs were injected. An untreated control of warm agar gel was injected for comparison purposes.
Treated slugs were maintained under controlled environmental conditions (12 hour photoperiod, 15° C., 90% relative humidity), and slug health assessments recorded over the three subsequent days. Slug health was classified into one of the following categories: • Healthy: showing no symptoms • Affected: showing some symptoms of poisoning, excessive mucus production/deformity • Dead

Where [11] appears, read: 0.1 mg a.i./slug, 72 hours after forced ingestion.
Setting [12] is: 0.0001 mg azoxystrobin/slug, 24 hours.
The mark [13] stands for this setting: 0.0001 mg azoxystrobin/slug, 48 hours.
Setting [14] is: 0.0001 mg azoxystrobin/slug, 72 hours.
The mark [15] stands for this setting: 0.001 mg azoxystrobin/slug, 24 hours.
Where [16] appears, read: 0.001 mg azoxystrobin/slug, 48 hours.
Setting [17] is: 0.001 mg azoxystrobin/slug, 72 hours.
Where [18] appears, read: 0.01 mg azoxystrobin/slug, 24 hours.
Where [19] appears, read: 0.01 mg azoxystrobin/slug, 48 hours.
The mark [20] stands for this setting: 0.01 mg azoxystrobin/slug, 72 hours.
[21] abbreviates: 0.1 mg azoxystrobin/slug, 24 hours.
Where [22] appears, read: 0.1 mg azoxystrobin/slug, 48 hours.
The mark [23] stands for this setting: 0.1 mg azoxystrobin/slug, 72 hours.
Setting [24] is: 1 mg azoxystrobin/slug, 24 hours.
The mark [25] stands for this setting: 1 mg azoxystrobin/slug, 48 hours.
Setting [26] is: 1 mg azoxystrobin/slug, 72 hours.

Regarding `CO/C=C(/C(=O)OC)c1ccccc1COc1cccc(C(F)(F)F)n1` [picoxystrobin], the “mean concentration that kills 99% of the population (probit analysis)” value in the data set on Deroceras reticulatum [1] (Deroceras reticulatum, treatments 1 to 4 (Acanto 250SC)) was determined as 0.198 mg a.i./slug. Moreover, the “killing of slugs (in words)” value in the data set on Deroceras reticulatum [1] (doses equivalent to 0.05 mg a.i./slug or more) was “highly effective at killing slugs”.

Regarding `CO/N=C(/C1=NOCCO1)c1ccccc1Oc1ncnc(Oc2ccccc2Cl)c1F` [fluoxastrobin], in the data set on Deroceras reticulatum [2], the “slug mortality (in words)” value was “significant levels of slug mortality”.

For the compound `CON=C(C(=O)OC)c1ccccc1CON=C(C)c1cccc(C(F)(F)F)c1` [trifloxystrobin], the “slug mortality (in words)” value in the data set with Deroceras reticulatum [2] was “significant levels of slug mortality”.

As for `CO/C=C(/C(=O)OC)c1ccccc1Oc1cc(Oc2ccccc2C#N)ncn1` [azoxystrobin], the “efficacy against slug species (in words)” value in the data set on Tandonia budapestensis [3] (Tandonia budapestensis) is “effective against all three species”; in the data set with Arion distinctus [4] (Arion distinctus), “effective against all three species”; in the data set on Arion fasciatus [5] (Arion fasciatus), “effective against all three species”; in the data set with Tandonia budapestensis [6], “effective against all four slug species tested”; in the data set on Arion distinctus [7] it was “effective against all four slug species tested”; with Arion fasciatus [8] it was “effective against all four slug species tested”. For the same compound, the “efficacy against slug species (in words)” value in the data set on Deroceras reticulatum [9] was “effective against all four slug species tested”. For the same compound, the “concentration to kill approximately 99% of the population (probit analysis)” value is reported as 0.163 mg a.i./slug with Tandonia budapestensis [3] (T. budapestensis), 0.183 mg a.i./slug in the data set on Arion distinctus [4] (A. distinctus) and 0.904 mg a.i./slug in the data set on Arion fasciatus [5] (A. fasciatus). In the data set on Deroceras reticulatum [2] (Deroceras reticulatum, treatments 1 to 4 (Amistar 250SC)), the “mean concentration that kills 99% of the population (probit analysis)” value came to 0.068 mg a.i./slug. In addition, in the data set on Deroceras reticulatum [2] (treatments 1 to 4), the “killing of slugs (in words)” value is recorded as “highly effective at killing slugs”. The compound further returned an Affected % in the data set on D. reticulatum (setting [11]) of 12.5%. For the same compound, in the data set with D. reticulatum (setting [11]), the “Dead or Moribund %” value was 42.5%. The compound also showed a Healthy % in the data set with D. reticulatum (setting [11]) of 45%. The same compound returned a slug mortality in the data set on D. reticulatum (azoxystrobin additionally present with surfactant/formulation (treatment 4)) of 100%. Also, the “Number of slugs Affected” value is on record as 0 in the data set on Deroceras reticulatum [10] (setting [12]); 0 with Deroceras reticulatum [10] (setting [13]); 0 in the data set on Deroceras reticulatum [10] (setting [14]); 4 with Deroceras reticulatum [10] (setting [15]); 2 with Deroceras reticulatum [10] (setting [16]); 2 with Deroceras reticulatum [10] (setting [17]). Moreover, the “Number of slugs Affected” value in the data set with Deroceras reticulatum [10] (setting [18]) is 6; in the data set on Deroceras reticulatum [10] (setting [19]), 6; in the data set on Deroceras reticulatum [10] (setting [20]) it was 6; in the data set on Deroceras reticulatum [10] (setting [21]) it was 2; in the data set with Deroceras reticulatum [10] (setting [22]) it was 0; with Deroceras reticulatum [10] (setting [23]), 0. For the same compound, the “Number of slugs Affected” value with Deroceras reticulatum [10] (setting [24]), in the data set with Deroceras reticulatum [10] (setting [25]) and in the data set on Deroceras reticulatum [10] (setting [26]) was 0 each time. Further, the “Number of slugs Dead” value is recorded as 0 in the data set with Deroceras reticulatum [10] (setting [12]); 0 with Deroceras reticulatum [10] (setting [13]); 0 with Deroceras reticulatum [10] (setting [14]); 0 in the data set on Deroceras reticulatum [10] (setting [15]); 4 with Deroceras reticulatum [10] (setting [16]); 4 in the data set with Deroceras reticulatum [10] (setting [17]). Further, the “Number of slugs Dead” value turned out to be 2 with Deroceras reticulatum [10] (setting [18]); 6 in the data set on Deroceras reticulatum [10] (setting [19]); 6 with Deroceras reticulatum [10] (setting [20]); 16 with Deroceras reticulatum [10] (setting [21]); 18 with Deroceras reticulatum [10] (setting [22]); 18 in the data set with Deroceras reticulatum [10] (setting [23]). For the same compound, the “Number of slugs Dead” value in the data set on Deroceras reticulatum [10] (setting [24]), in the data set on Deroceras reticulatum [10] (setting [25]) and in the data set with Deroceras reticulatum [10] (setting [26]) was 20 in each case. The “Number of slugs Healthy” value was determined as 20 in the data set on Deroceras reticulatum [10] (setting [12]); 20 with Deroceras reticulatum [10] (setting [13]); 20 in the data set on Deroceras reticulatum [10] (setting [14]); 16 in the data set with Deroceras reticulatum [10] (setting [15]); 14 in the data set on Deroceras reticulatum [10] (setting [16]); 14 with Deroceras reticulatum [10] (setting [17]). Besides, the “Number of slugs Healthy” value in the data set with Deroceras reticulatum [10] (setting [18]) came to 12; in the data set on Deroceras reticulatum [10] (setting [19]), 8; with Deroceras reticulatum [10] (setting [20]), 8; in the data set with Deroceras reticulatum [10] (setting [21]) it was 2; in the data set with Deroceras reticulatum [10] (setting [22]), 2; with Deroceras reticulatum [10] (setting [23]) it was 2. In addition, the “Number of slugs Healthy” value in the data set on Deroceras reticulatum [10] (setting [24]), in the data set on Deroceras reticulatum [10] (setting [25]) and in the data set with Deroceras reticulatum [10] (setting [26]) was 0 in each case. The “activity against D. reticulatum slugs (in words)” value in the data set on Deroceras reticulatum [10] (efficacy increases with concentration and with time) is recorded as “active against D. reticulatum slugs”.
